# Laboratory results from US20230047208A1, “RNA Splicing Modulation” (The General Hospital Corporation, priority 2020, published 2023).
# Test system: wildtype (WT) human fibroblast cell lines
# Assay: Transcriptome-wide splicing by RNA sequencing (RNASeq), exon triplet PSI change
# Format: cell-based
# Design: key to Effect: Exclusion; Inclusion; Unchanged
# Description: FIG. 2A provides a representation of an exon triplet. Exon U is upstream of Exon X, which is upstream of Exon D. R1, R2 and R3 represent RNA sequencing (RNASeq) reads spanning the regions between two adjacent exons. UI1, I1X, XI2 and I2D are four regions flanking the four splice sites of the exon-triplet. Each flanking region consists of 25 exonic base pairs and 75 intronic base pairs.
# FIG. 2B provides a volcano plot showing the ψ (PSI: Percent Spliced-In) changes in splicing after treatment with Compound (I). Each dot represents one of the 161,097 expressed exon triplets in human fibroblasts. The x axis represents the ψ changes after treatment and the y axis represents the False Discovery Rate (FDR) (log 10 transformed). […] The horizontal dashed line indicates an FDR of 0.1. The dots on the right side of the right vertical dashed line and above the horizontal dashed line represent the exon-triplets with an increase for Exon X inclusion (Δψ≥0.1 and FDR<0.1) while the dots on left side of the left vertical dashed line and above the horizontal dashed line represent an increase for Exon X exclusion (Δψ≤−0.1 and FDR<0.1). Black dots in-between the two vertical dashed lines represent exon-triplets unchanged from the treatment.
# In some aspects, analysis is performed on data derived from the assay to measure the magnitude of splicing to determine the amount of exons spliced into an mRNA transcript that is produced in the presence of Compound (I) relative to the amount in the absence of Compound (I) or presence of a negative control. In a preferred aspect, the method utilized is calculation of change in Percent Spliced In (ΔPSI). […] The ΔPSI value is derived from the formula: […]
# The values for “a” and “b” represent the number of reads supporting the probability for potential inclusion or exclusion of an exon in an RNA transcript. The “a” value is derived from the number of reads within an exon triplet covering, in 5′ to 3′ order: the last few bases (>1 nucleotide) of an upstream exon operably linked to the first few bases (>1 nucleotide) of a middle exon. The “b” value is derived from the number of reads within an exon triplet covering, in 5′ to 3′ order: the last few bases (>1 nucleotide) of the middle exon operably linked to the first few bases (>1 nucleotide) of a downstream exon. The number of reads will indicate whether the splice junction of a middle exon has been identified as potentially having a CNN Motif(s) by the CNN Model described herein, wherein the inclusion or exclusion of the middle exon may be modulated in the presence of Compound (I) to produce one or more mature RNA isoforms from the gene transcript. The value for “c” represents the number of reads supporting the exclusion of the middle exon.
# The effect on splicing modulation and corresponding splice differences toward exon inclusion or exclusion was determined by counting the RNASeq reads covering two splice junctions of exon triplets (three consecutive exons: Exon U, Exon X, Exon D) and the corresponding intervening introns, then comparing the change in Percent Spliced In (ΔPSI or Δψ) of the middle exon (Exon X) after treatment (as shown in FIG. 2A)^52,53. 934 exon triplets were identified showing differential middle exon inclusion or exclusion in response to Compound (I) treatment. Of these, 254 were exon inclusion events (Δψ≥0.1 and FDR<0.1) and 680 were exon exclusion events (Δψ≤−0.1 and FDR<0.1) (as shown in FIG. 2B). […] The splicing results were evaluated by RT-PCR in independent replicate experiments, confirming all the calculated Δψ values. […]
smiles,measurement,setting,value
"Clc1nc(NCc2ccncc2)c2cc[nH]c2n1 [Compound (I), 2-chloro-N-(pyridin-4-ylmethyl)-7H-pyrrolo[2,3-d]pyrimidin-4-amine]","splicing changes, share of all expressed triplets","934 out of 161,097 expressed triplets",0.58%
same,Effect,"Exc/Inc/Unc of the middle exon of the exon triplet, six WT human fibroblast cell lines treated for seven days vs DMSO, gene LENG8",Exc
same,Effect,"Exc/Inc/Unc of the middle exon of the exon triplet, six WT human fibroblast cell lines treated for seven days vs DMSO, gene LGALS8",Inc
same,Effect,"Exc/Inc/Unc of the middle exon of the exon triplet, six WT human fibroblast cell lines treated for seven days vs DMSO, gene LRP12",Unc
same,Effect,MYO1B Exon 192265475-192265561,Inc
same,T-PSI,MYO1B Exon 192265475-192265561,0.296
same,ΔPSI,MYO1B Exon 192265475-192265561,0.128
same,Effect,MYO1B Exon 192267358-192267444,Inc
same,T-PSI,MYO1B Exon 192267358-192267444,0.483
same,ΔPSI,MYO1B Exon 192267358-192267444,0.190
same,Effect,MYO5A Exon 52630007-52630081,Exc
same,T-PSI,MYO5A Exon 52630007-52630081,0.063
same,ΔPSI,MYO5A Exon 52630007-52630081,−0.118
same,Effect,MYO5A Exon 52635314-52635394,Unc
same,T-PSI,MYO5A Exon 52635314-52635394,0.617
same,ΔPSI,MYO5A Exon 52635314-52635394,0.007
same,Effect,MYO5A Exon 52641015-52641023,Inc
same,T-PSI,MYO5A Exon 52641015-52641023,0.953
same,ΔPSI,MYO5A Exon 52641015-52641023,0.130
same,Effect,MYO18A Exon 27464034-27464102,Unc
same,T-PSI,MYO18A Exon 27464034-27464102,0.330
same,ΔPSI,MYO18A Exon 27464034-27464102,0.005
same,Effect,MYO19 Exon 34870956-34871025,Exc
same,T-PSI,MYO19 Exon 34870956-34871025,0.870
same,ΔPSI,MYO19 Exon 34870956-34871025,−0.109
same,Effect,N6AMT2 Exon 21311862-21311944,Unc
same,T-PSI,N6AMT2 Exon 21311862-21311944,0.755
same,ΔPSI,N6AMT2 Exon 21311862-21311944,0.010
same,Effect,NABP1 Exon 192547218-192547321,Inc
same,T-PSI,NABP1 Exon 192547218-192547321,0.729
same,ΔPSI,NABP1 Exon 192547218-192547321,0.198
same,Effect,NADK2 Exon 36208727-36208792,Exc
same,T-PSI,NADK2 Exon 36208727-36208792,0.005
same,ΔPSI,NADK2 Exon 36208727-36208792,−0.102
same,Effect,NAE1 Exon 66860571-66860683,Exc
same,T-PSI,NAE1 Exon 66860571-66860683,0.596
same,ΔPSI,NAE1 Exon 66860571-66860683,−0.315
same,Effect,NAE1 Exon 66860580-66860683,Exc
same,T-PSI,NAE1 Exon 66860580-66860683,0.859
same,ΔPSI,NAE1 Exon 66860580-66860683,−0.115
same,Effect,NBN Exon 90994181-90994230,Exc
same,T-PSI,NBN Exon 90994181-90994230,0.017
same,ΔPSI,NBN Exon 90994181-90994230,−0.156
same,Effect,NCK2 Exon 106497784-106498505,Unc
same,T-PSI,NCK2 Exon 106497784-106498505,0.586
same,ΔPSI,NCK2 Exon 106497784-106498505,−0.008
same,Effect,NCOR2 Exon 124811955-124812179,Unc
same,T-PSI,NCOR2 Exon 124811955-124812179,0.657
same,ΔPSI,NCOR2 Exon 124811955-124812179,0.000
same,Effect,NCOR2 Exon 124812093-124812179,Unc
same,T-PSI,NCOR2 Exon 124812093-124812179,0.681
same,ΔPSI,NCOR2 Exon 124812093-124812179,−0.001
same,Effect,NEDD1 Exon 97301382-97301634,Unc
same,T-PSI,NEDD1 Exon 97301382-97301634,0.826
same,ΔPSI,NEDD1 Exon 97301382-97301634,−0.003
same,Effect,NEDD1 Exon 97301480-97301634,Unc
same,T-PSI,NEDD1 Exon 97301480-97301634,0.878
same,ΔPSI,NEDD1 Exon 97301480-97301634,0.008
same,Effect,NEK1 Exon 170508710-170508764,Exc
same,T-PSI,NEK1 Exon 170508710-170508764,0.830
same,ΔPSI,NEK1 Exon 170508710-170508764,−0.152
same,Effect,NEO1 Exon 73567033-73567065,Inc
same,T-PSI,NEO1 Exon 73567033-73567065,0.149
same,ΔPSI,NEO1 Exon 73567033-73567065,0.120
same,Effect,NEXN Exon 78390873-78390914,Exc
same,T-PSI,NEXN Exon 78390873-78390914,0.654
same,ΔPSI,NEXN Exon 78390873-78390914,−0.138
same,Effect,NF2 Exon 30079009-30079053,Inc
same,T-PSI,NF2 Exon 30079009-30079053,0.900
same,ΔPSI,NF2 Exon 30079009-30079053,0.167
same,Effect,NF2 Exon 30079009-30079068,Inc
same,T-PSI,NF2 Exon 30079009-30079068,0.807
same,ΔPSI,NF2 Exon 30079009-30079068,0.244
same,Effect,NFE2L1 Exon 46134394-46134483,Exc
same,T-PSI,NFE2L1 Exon 46134394-46134483,0.327
same,ΔPSI,NFE2L1 Exon 46134394-46134483,−0.156
